Experimental data taken from patent US10369187B2, “Peptide regulators of JNK family kinases” (Vanderbilt University, priority 2017, dated 2019).

Legend:
[1] = tested on: MKK4-JNK3 module; test: JNK3 phosphorylation by co-expressed MKK4 in cells; assay type: cell-based, African green monkey; details: YFP-T1A co-expressed with MKK4 in COS7 cells
Procedure: To test whether T1A can promote JNK3 phosphorylation by MKKs in cells, MKK4 or MKK7 was co-expressed with YFP-T1A in COS7 cells, using YFP and full-length arrestin-3 as negative and positive controls, respectively (FIG. 2C).
COS-7 African green monkey cells were maintained in DMEM supplemented with 10% heat-inactivated FBS (Invitrogen), penicillin, and streptomycin at 37° C. in a humidified incubator with 5% CO2. The cells were plated at 80-90% confluence and transfected using Lipofectamine 2000 (Invitrogen) according to the manufacturer's instructions. Cells were used 48 h post-transfection and serum-starved overnight before experiments.
COS-7 cells were incubated with phosphatase inhibitors (50 mM NaF and 10 mM Na3VO4) in serum-free medium for 15 min at 37° C.; washed with cold PBS; and lysed with SDS lysis buffer containing 1% SDS, 10 mM Tris (pH7.4), 10 mM NaF, 100 μM Na3VO4, 2 mM EDTA, 2 mM benzamidine and 1 mM PMSF. JNKs activity was assayed by Western blotting using an antibody specific for phosphorylated JNK to detect phosphorylated (active) JNKs^17,20,23. […] Protein was measured using the Bio-Rad Coomassie Blue assay. […] Protein bands were detected by enhanced chemiluminescence (ECL, Pierce), followed by exposure to x-ray film. To quantify phospho-JNKs, serial dilutions of anisomycin (1 μg/ml)-stimulated HEK-A cell lysates were used to ensure that all samples were in linear range. […]

[2] = target: T1, ASK1 (Homo sapiens, UniProt Q99683); test: Co-immunoprecipitation of HA-ASK1 with YFP construct from COS7 cells; assay type: binding; details: HA-ASK1 and YFP-T1A co-expressed in COS7 cells, anti-GFP antibody
T1 construct: expressed in transfected cells; host or cells: COS7
T1 sequence (Q99683 1-1374): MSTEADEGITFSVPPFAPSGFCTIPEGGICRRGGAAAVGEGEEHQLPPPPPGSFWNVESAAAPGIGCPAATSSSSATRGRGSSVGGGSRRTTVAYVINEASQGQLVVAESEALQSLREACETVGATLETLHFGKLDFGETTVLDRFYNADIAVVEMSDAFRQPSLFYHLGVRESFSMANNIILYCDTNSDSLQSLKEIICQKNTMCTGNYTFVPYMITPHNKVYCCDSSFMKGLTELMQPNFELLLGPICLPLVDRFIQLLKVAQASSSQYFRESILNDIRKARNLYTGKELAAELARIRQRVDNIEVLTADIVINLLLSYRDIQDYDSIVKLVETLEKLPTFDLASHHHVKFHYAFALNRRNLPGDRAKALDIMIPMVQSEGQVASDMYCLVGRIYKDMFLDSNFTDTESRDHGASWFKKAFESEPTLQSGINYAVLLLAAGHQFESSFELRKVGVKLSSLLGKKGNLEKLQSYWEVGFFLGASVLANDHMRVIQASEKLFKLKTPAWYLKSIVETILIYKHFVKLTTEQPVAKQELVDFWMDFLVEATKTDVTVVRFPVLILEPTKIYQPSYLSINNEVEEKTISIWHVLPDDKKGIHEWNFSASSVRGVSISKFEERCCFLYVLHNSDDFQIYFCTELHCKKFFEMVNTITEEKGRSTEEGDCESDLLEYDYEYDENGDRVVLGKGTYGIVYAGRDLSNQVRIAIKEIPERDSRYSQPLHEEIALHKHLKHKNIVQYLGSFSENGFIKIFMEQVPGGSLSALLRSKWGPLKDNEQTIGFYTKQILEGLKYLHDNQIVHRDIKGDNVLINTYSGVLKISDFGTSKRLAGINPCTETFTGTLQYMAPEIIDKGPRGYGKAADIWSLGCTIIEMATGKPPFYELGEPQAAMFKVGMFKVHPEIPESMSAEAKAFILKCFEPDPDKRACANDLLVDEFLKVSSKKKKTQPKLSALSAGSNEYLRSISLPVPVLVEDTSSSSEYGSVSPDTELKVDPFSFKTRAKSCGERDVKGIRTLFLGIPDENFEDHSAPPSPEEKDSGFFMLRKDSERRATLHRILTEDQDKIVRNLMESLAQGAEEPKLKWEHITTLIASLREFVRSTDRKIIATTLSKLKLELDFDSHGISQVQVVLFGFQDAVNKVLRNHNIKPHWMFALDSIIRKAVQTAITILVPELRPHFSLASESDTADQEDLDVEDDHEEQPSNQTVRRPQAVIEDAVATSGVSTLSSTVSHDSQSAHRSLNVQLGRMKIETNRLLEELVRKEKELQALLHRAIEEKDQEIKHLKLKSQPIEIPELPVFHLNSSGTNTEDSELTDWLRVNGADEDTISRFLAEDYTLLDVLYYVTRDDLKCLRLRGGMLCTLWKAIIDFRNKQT
Procedure: T1A was expressed in E. coli as an MBP-fusion and purified it on an amylose column^23. The ability of purified GST-MKK4 or GST-MKK7 (FIG. 1A) to bind MBP-T1A immobilized on an amylose column was tested in an in vitro pull-down assay, where MBP and MBP-arrestin-3 served as negative and positive controls, respectively (FIG. 1B). MBP-T1A, but not control MBP, effectively retained both kinases (FIG. 1B). […] Next, it was tested whether T1A binds the uppermost kinase in the cascade, ASK1. Because ASK1 is not available in purified form, HA-tagged ASK1 and YFP-tagged T1A (using YFP as a control) were co-expressed in COS7 cells, lysed the cells, and immunoprecipitated YFP constructs with anti-GFP antibody (FIG. 1C).

MGEKPGTRVFKKSSPNCKLTVYLGK (bovine) [T1A, first 25 residues of arrestin-3]
JNK3 phosphorylation by MKK4 in cells [1]: necessary and sufficient to promote the signaling | binding of ASK1 (co-immunoprecipitation) [2]: binds all upstream kinases of its activation cascade
